Data on four molecules can be found in publication PMC7179022, “Carvacrol Prodrugs with Antimicrobial Activity Loaded on Clay Nanocomposites” (Materials, 2020).

Series [1] can be described thus: In vitro release studies of WSCP1-3 loaded-VHS in a dissolution tester. The conditions noted are these: 37 °C, from prodrug-VHS nanohybrid. The class given is physicochemical. As to the method:
Release studies were conducted in a dissolution tester (Sotax AT7, SOTAX Group, Aesch, Switzerland). […] During the test, temperature was maintained constant at 37 °C and agitation was achieved using a paddle system set to 100 rpm. At predetermined time intervals, 5 mL of dissolution medium was withdrawn, filtered with 0.45 μm Millipore^© membranes, and replaced with an equal volume of the corresponding fresh dissolution medium. […] Va is the volume picked up; and Ci is the concentration of drug at time i.

The nature of series [2]: Chemical conversion of carvacrol prodrugs to carvacrol in water and buffer solutions (HPLC). The class given is physicochemical. The following applies: 37 °C, 1 mg/mL, mean (±SD) of three experiments. As to the method: We removed 400 μL samples at various time intervals and drug concentrations were analyzed by high performance liquid chromatography (HPLC) using an Agilent 1260 Infinity II HPLC (Agilent, Santa Clara, CA, USA) consisting of quaternary pump, autosampler, column oven, and UV-Vis diode-array detector. Samples were run in an Agilent Poroshell 120 EC-C18 column (4 μm, 4.60 × 150 mm; Agilent, Santa Clara, CA, USA) maintained at 25 °C. The mobile phase consisted of a mixture 50:50 v/v H2O MilliQ (Merck KGaA, Darmstadt, Germany) and CH3CN with 0.1% trifluoracetic acid (TFA) flushing at an isocratic flow rate of 1 mL/min. The detector was set at a wavelength of 270 nm. Data were processed using LC Open LAB HPLC 1260 software (Agilent, Santa Clara, CA, USA). Results are reported as relative difference (RD%) of prodrugs conversion, calculated with Equation (1):(1) RD%=Ci− Cf/Ci ×100 where Ci is the prodrug concentration at zero time point and Cf is the prodrug concentration at the end of incubation.

For series [3] the following is noted: cited from earlier work.
On the set-up of series [4]: method as in PMID 16869897, PMID 31284397. The conditions noted are these: cited from earlier work.
[5] abbreviates: acid pH (0.1 M HCl, pH 1.2), 120 min.
[6] abbreviates: pH 6.8 phosphate buffer, 240 min.

Each structure is given as a SMILES string. Values after ≈ are worked out from the molar mass of the structure shown.

For `Cc1ccc(C(C)C)cc1OC(=O)CN` [WSCP1], the “amount of prodrug released from VHS” value came to 38% in series [1] (setting [5]) and 65% in series [1] (setting [6]). The “pseudo-first-order dissociation rate constant Kobs” value in series [2] (pH 6.8 buffer) was 0.2982 (±0.0106) h^−1.

For `Cc1ccc(C(C)C)cc1OC(=O)[C@@H](C)N` [WSCP2], the “amount of prodrug released from VHS” value is reported as 54% in series [1] (setting [5]) and 78% in series [1] (setting [6]). The “pseudo-first-order dissociation rate constant Kobs” value is listed as 0.9027 (±0.0042) h^−1 in series [2] (pH 6.8 buffer) and 0.7878 (±0.0629) h^−1 in series [2] (pH 7.4 buffer).

For the molecule `Cc1ccc(C(C)C)cc1OC(=O)CCN` [WSCP3], the “amount of prodrug released from VHS” value in series [1] (setting [5]) was 45%; in series [1] (setting [6]), 44%. The figures for the “pseudo-first-order dissociation rate constant Kobs” value in series [2] (pH 6.8 buffer) and in series [2] (pH 7.4 buffer) were 0.0381 (±0.0002) h^−1 and 0.0420 (±0.0006) h^−1, respectively.

Regarding `Cc1ccc(C(C)C)cc1O` [carvacrol, 2-methyl-5-isopropylphenol], the water solubility in series [3] is 110 µg/mL (≈ 732 µM). The “octanol/water partition coefficient (logP o/w)” value in series [4] is on record as 3.64.
